Measured values taken from paper PMC9664868, “Dephospho-Coenzyme A Kinase Is an Exploitable Drug Target against Plasmodium falciparum: Identification of Selective Inhibitors by High-Throughput Screening of a Large Chemical Compound Library” (Antimicrobial Agents and Chemotherapy, 2022).
Read-outs that look alike come from different tables or passages of the source.

Tests used:
HepG2 cell line = test: Cytotoxicity assay (Cell Counting Kit-8); assay type: cell-based, human
Experimental: Cytotoxicity against human cells was evaluated using the human liver carcinoma HepG2 cell line. HepG2 cells were cultured in D-MED supplemented with 4 mM L-glutamine and 10% fetal bovine serum (FBS) in a 75-cm^2 flask (Violamo) at 37°C. For the cytotoxicity assay, HepG2 cells in semiconfluent state were detached from the flask by incubating the cells with 5 mL D-MEM containing 0.25% trypsin-EDTA. After detachment, HepG2 cells were resuspended in D-MEM-supplemented L-glutamine and FBS, and cell viability was evaluated by incubating cells with 0.4% Trypan blue on a hemocytometer. An approximately 50-μL suspension containing 3,000 cells was dispensed into each well on a 384-well clear-bottom plate using a Multidrop Combi dispenser. Compounds dissolved in DMSO had been dispensed into wells to yield final concentrations of 100, 20, 4, 0.8, and 0.2 μM before cells were added. After cells were added to the plates, they were cultured at 37°C under 5% CO2. After 48 h cultivation, 5 μL of Cell Counting Kit-8 (Dojindo, Japan) was added, and the plates were further incubated for 2 h to assess cell growth and survival.

[1] = tested on: P. falciparum drug-resistant Dd2 strain; test: Erythrocytic-stage parasite growth inhibition, diaphorase-coupled LDH assay, Dd2; assay type: cell-based, Plasmodium falciparum
Experimental: (§1) Selected hit compounds were also tested against erythrocytic-stage parasites of P. falciparum drug-sensitive 3D7 and drug-resistant Dd2 strains ([39]). For the phenotypic assay, parasite cultures were synchronized with 5% (wt/vol) D-sorbitol as previously described ([40]). A synchronized culture containing ring-stage parasites of 0.3% parasitemia was initiated with a culture volume of 25 μL/well on a 384-well plate. A series of diluted compounds (at final concentrations of 50, 10, 2, 0.4, and 0.08 μM) were used to calculate IC50 values. Mefloquine at 50 μM and atovaquone at 20 μM were used as no-growth control (100% inhibition). After 72 h of incubation, parasite growth was measured by diaphorase-coupled lactate dehydrogenase (LDH) assay as previously described ([41]). Absorbance at 650 nm was measured using SpectraMax Paradigm multimode microplate reader (Molecular Devices, San Jose, CA, USA). The IC50 values were calculated as described above.

[2] = tested on: P. falciparum drug-sensitive 3D7 strain; test: Erythrocytic-stage parasite growth inhibition, diaphorase-coupled LDH assay, 3D7; assay type: cell-based, Plasmodium falciparum; conditions: for Selectivity index IC50 (HepG2/3D7): HepG2 IC50 / 3D7 IC50
Experimental: as §1

PfDPCK = PfDPCK (Plasmodium falciparum, UniProt Q8IL34); test: PfDPCK inhibition, enzyme-coupled fluorescence ADP detection assay (HTS and IC50 determination); assay type: biochemical
PfDPCK, sequence (Q8IL34 entry or part of it): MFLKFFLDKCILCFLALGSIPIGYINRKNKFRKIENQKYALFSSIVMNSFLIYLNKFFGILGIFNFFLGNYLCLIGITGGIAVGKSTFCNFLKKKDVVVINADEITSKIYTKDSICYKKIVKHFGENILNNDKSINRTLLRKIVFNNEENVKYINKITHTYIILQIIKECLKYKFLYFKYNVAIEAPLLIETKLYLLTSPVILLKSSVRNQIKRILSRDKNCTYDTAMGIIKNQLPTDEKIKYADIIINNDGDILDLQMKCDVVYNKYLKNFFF
Experimental: High-throughput screening against recombinant PfDPCK was performed using the Drug Discovery Initiative (DDI) full library, available from The University of Tokyo, composed of approximately 210,000 compounds. The primary assay was performed on 1,536-well white plate format with a final volume of 2 μL/well, containing 10 μM test compounds using a Multidrop Combi reagent dispenser (Thermo Fisher Scientific, Waltham, MA). The reaction was conducted in the assay buffer described above with 100 μM ATP and 50 μM dephospho-CoA. The assay was carried out at room temperature for 4 h in a closed plastic container with wet tissues. The reaction was stopped, and produced ADP was quantified using an enzyme-coupled fluorescence ADP detection assay, using PHERAstar microplate reader (BMG Labtech, Offenburg, Germany) with excitation at 540 nm and emission at 590 nm, as previously described ([17]). The inhibition level was calculated as the percentage inhibition of DPCK activity with each compound compared to the activity with only dimethyl sulfoxide (DMSO) as control (no inhibition) and that with no enzyme as 100% inhibition. IC50 values of the hit compounds were determined under the same assay conditions for the screening: Z′ factor, signal-to-background ratio (S/B), signal-to-noise ratio (S/N), and coefficient of variation (CV) were calculated to estimate the quality of screening system as previously described ([18], [38]).
The primary hits were reassayed in quadruplicate (n = 4) as in the primary screening. We next tested the confirmed secondary hits to exclude false positives that inhibit coupled fluorescence assay, but not PfDPCK. After exclusion of false positives, all tertiary hits were tested against human HsCOASY in the counterassay to exclude compounds that inhibit both PfDPCK and HsCOASY. The compounds showing >10% inhibition against HsCOASY were excluded from further studies. The IC50 values of the hit compounds were determined under the same assay conditions described as above for the primary screening, with the serially diluted compounds at 20, 10, 2.5, 0.5, and 0.1 μM at final concentrations. The assay was conducted in quadruplicate for each dilution, and IC50 values were calculated using GraphPad Software (San Diego, California USA).

[3] = Homo sapiens, HepG2, 48 h, means ± SEMs, read-out: IC50 (μM) of: HepG2
[4] = recombinant enzyme, means ± SEMs, read-out: IC50 (μM) of: PfDPCK
[5] = Plasmodium falciparum, drug-resistant Dd2, 72 h, means ± SEMs, read-out: IC50 (μM) of: Pf cell Dd2
[6] = Plasmodium falciparum, drug-sensitive 3D7, 72 h, means ± SEMs, read-out: IC50 (μM) of: Pf cell 3D7
[7] = Homo sapiens, HepG2, ND (maximum concentration tested 100 μM), read-out: IC50 (μM) of: HepG2
[8] = Homo sapiens, HepG2, Table S1, means ± SEM, read-out: IC50 (μM) HepG2
[9] = Table 2, PfDPCK inhibitor scaffolds Gr4, Gr5, Gr8, read-out: IC50
[10] = Plasmodium falciparum, DD2, Table S1, means ± SEM, read-out: IC50 (μM) Pf cell Dd2
[11] = Plasmodium falciparum, 3D7, Table S1, means ± SEM, read-out: IC50 (μM) Pf cell 3D7
[12] = Homo sapiens, HepG2, read-out: IC50 (μM) of: HepG2
[13] = Plasmodium falciparum, DD2, 72 h, read-out: IC50 (μM) of: Pf cell Dd2
[14] = Plasmodium falciparum, 3D7, 72 h, read-out: IC50 (μM) of: Pf cell 3D7

| Structure (SMILES) | IC50 (HepG2 cell line; [3]) | Selectivity index IC50 (HepG2/Dd2) [1] | Selectivity index IC50 (HepG2/3D7) [2] | IC50 (PfDPCK; [4]) | IC50 [1, 5] | IC50 [2, 6] | other results |
| --- | --- | --- | --- | --- | --- | --- | --- |
| O=C1C(O)=C([C@H]2CC[C@H](c3ccc(Cl)cc3)CC2)C(=O)c2ccccc21 [Atovaquone, reference compound] | 79.9 ± 1.79 µM | 499,375 | 363,181 | – | – | – | IC50 ([1]; Plasmodium falciparum, drug-resistant Dd2, value in nM, read-out: IC50 of: Pf cell Dd2): 0.16 ± 0.028 nM; IC50 ([2]; Plasmodium falciparum, drug-sensitive 3D7, value in nM, read-out: IC50 of: Pf cell 3D7): 0.22 ± 0.03 nM |
| CNc1nc(NC(C)(C)C)nc(NC(C)(C)C)n1 [Compound A-2] | > 100 µM | >102 | >23 | 0.4 ± 0.07 µM | 980 ± 500 nM | 4430 ± 40 nM | – |
| CCCn1c(C)cc(-c2csc(NC(=O)C3CC3)n2)c1C [Compound A-4] | – | – | – | 0.52 ± 0.09 µM | 1590 ± 230 nM | 4450 ± 50 nM | IC50 (HepG2 cell line; [7]): > 100 µM |
| CCNC(=N)SCc1c(C)c(C)c(C)c(C)c1C [Compound A-7] | 9.04 ± 0.01 µM | 69.5 | 8.2 | 1.09 ± 0.03 µM | 130 ± 10 nM | 1100 ± 110 nM | – |
| Nc1nc(Nc2cccc(F)c2)nc2ccccc12 [Compound A-13] | – | – | – | 1.69 ± 0.05 µM | 3400 ± 350 nM | 1300 ± 60 nM | IC50 (HepG2 cell line; [7]): > 100 µM |
| Cc1ccc(S(=O)(=O)Nc2cc(Cl)c(O)c3ccccc23)c(C)c1 [Compound A-16] | 39.6 ± 2.3 µM | 171.7 | 17.9 | 2.09 ± 0.04 µM | 230 ± 10 nM | 2210 ± 70 nM | – |
| CCOc1ccc(-n2cc(-c3ccccc3)c3c(NCCN(C)C)ncnc32)cc1 [Compound A-17] | – | – | – | – | – | – | IC50 (HepG2 cell line; [8]): 8.45 ± 0.35 µM; IC50 (PfDPCK; [9]): 2.15 ± 0.07 µM; IC50 [1, 10]: 2700 ± 440 nM; IC50 [2, 11]: 22900 ± 1870 nM |
| Cc1cc(-c2csc(NC3CC3)n2)c(C)n1CCC1=CCCCC1 [Compound A-19] | 81.5 µM | 30.8 | 22.4 | 2.55 ± 0.03 µM | 2650 ± 130 nM | 3640 ± 40 nM | – |
| CCOC(=O)C1NC(c2ccc[n+](C)c2)C23c4c5c6c7c8c9c(c%10c%11c2c2c4c4c%12c5c5c6c6c8c8c%13c9c9c%10c%10c%11c%11c2c2c4c4c%12c%12c5c5c6c8c6c8c%13c9c9c%10c%10c%11c2c2c4c4c%12c5c6c5c8c9c%10c2c45)C713 (centres unmarked) [Compound A-22] | – | – | – | – | – | – | IC50 (HepG2 cell line; [12]): > 100 µM; IC50 (PfDPCK): 3.25 ± 0.02 µM; IC50 [1, 13]: 6320 ± 350 nM; IC50 [2, 14]: 30600 ± 1500 nM |
| CCOC(=O)CN1C(C(=O)OCC)C23c4c5c6c7c8c9c(c%10c%11c2c2c4c4c%12c5c5c6c6c8c8c%13c9c9c%10c%10c%11c%11c2c2c4c4c%12c%12c5c5c6c8c6c8c%13c9c9c%10c%10c%11c2c2c4c4c%12c5c6c5c8c9c%10c2c45)C73C1c1cc[n+](C)cc1 (centres unmarked) [Compound A-23] | – | – | – | – | – | – | IC50 (HepG2 cell line; ND (maximum concentration tested 100 μM), read-out: IC50 (μM) of: HepG2): > 100 µM; IC50 (PfDPCK): 3.31 ± 0.02 µM; IC50 ([1]; drug-resistant Dd2, 72 h, means ± SEMs, read-out: IC50 (μM) of: Pf cell Dd2): 7420 ± 460 nM; IC50 ([2]; drug-sensitive 3D7, 72 h, means ± SEMs, read-out: IC50 (μM) of: Pf cell 3D7): 4470 ± 120 nM |
| Cc1cc(Nc2cc3ccccc3cc2O)n2ncnc2n1 [Compound A-25] | – | – | – | 3.45 ± 0.07 µM | > 50000 nM | 1640 ± 30 nM | IC50 (HepG2 cell line; [7]): > 100 µM |
| Cc1ccc(-c2nnc(Nc3ccc(O)cc3)c3ccccc23)cc1S(=O)(=O)NCCO [Compound A-26] | – | – | – | 3.5 ± 0.04 µM | 3410 ± 1220 nM | 14450 ± 80 nM | IC50 (HepG2 cell line; [7]): > 100 µM |
| CCN(CC)CCn1c(=N)n(CC(=O)c2cc(C(C)(C)C)c(O)c(C(C)(C)C)c2)c2ccccc21 [Compound A-30] | 3.75 ± 3.55 µM | 43.5 | 45.1 | 3.83 ± 0.03 µM | 90 ± 60 nM | 80 ± 10 nM | – |
| CC1(C)NC(C(=O)O)C23c4c5c6c7c8c9c(c%10c%11c2c2c4c4c%12c5c5c6c6c8c8c%13c9c9c%10c%10c%11c%11c2c2c4c4c%12c%12c5c5c6c8c6c8c%13c9c9c%10c%10c%11c2c2c4c4c%12c5c6c5c8c9c%10c2c45)C713 (centres unmarked) [Compound A-31] | – | – | – | – | – | – | IC50 (HepG2 cell line; [12]): > 100 µM; IC50 (PfDPCK): 3.83 ± 0.04 µM; IC50 [1, 13]: 670 ± 20 nM; IC50 [2, 14]: > 50000 nM |
| COc1ccc(NC(C)=O)cc1/N=C/c1cc(Br)cc(Br)c1O [Compound A-38] | > 100 µM | >142.8 | >3.4 | 4.87 ± 0.05 µM | 700 ± 100 nM | 29060 ± 200 nM | – |
| Cc1cccc(-n2cc(-c3ccccc3)c3c(NCCOCCO)ncnc32)c1 [Compound A-42] | – | – | – | – | – | – | IC50 (HepG2 cell line; [8]): 63.2 ± 3.48 µM; IC50 (PfDPCK; [9]): 6.14 ± 0.28 µM; IC50 [1, 10]: 49700 ± 3220 nM; IC50 [2, 11]: 38200 ± 2910 nM |
| Cc1cc(-c2csc(N3CCCC3)n2)c(C)n1-c1c(C)n(C)n(-c2ccccc2)c1=O [Compound A-44] | – | – | – | 6.33 ± 0.11 µM | 1750 ± 50 nM | 3960 ± 40 nM | IC50 (HepG2 cell line; [7]): > 100 µM |
| Cc1cc(-c2csc(-c3ccsc3)n2)c(C)n1CCCCCC(=O)O [Compound A-96] | – | – | – | – | – | – | IC50 (PfDPCK; [9]): 14.7 ± 0.28 µM; IC50 [1, 10]: 27700 ± 2600 nM; IC50 [2, 11]: 31000 ± 2100 nM |
| OC(c1cc(C(F)(F)F)nc2c(C(F)(F)F)cccc12)C1CCCCN1 (centres unmarked) [Mefloquine, reference compound] | 1.73 ± 0.7 µM | 8.8 | 133 | – | 190 ± 70 nM | 13 ± 6 nM | – |
